Where two headings read alike, the source gives them in different places.

The subject of assay [1] is C2C12 cells. In words: Seahorse XFe96 Mito Stress Test in C2C12 cells. Particulars: affecting maximal respiration and ATP production-linked oxygen consumption. In kind it is cell-based. As to the method: C2C12 cells (3 × 10^4 cells/well) were placed in XFe96 cell culture plates. After 24 h of incubation at 37 °C, cell growth medium was substituted with an XF base medium supplemented with 2 mM glutamine, 1 mM sodium pyruvate, and 10 mM glucose, pH 7.4. The plate was then transferred in a non-CO2 incubator for 1 h at 37 °C to pre-equilibrate the cells before analysis. An XF Mito Stress Test was performed to assay the cells’ ability to exploit mitochondrial oxidative metabolism, according to the manufacturer’s instructions. The oxygen consumption rate (OCR) was evaluated after the injection of a sequence of compounds that interfere with the electron transport chain: oligomycin (1 μM), carbonyl cyanide-4 (trifluoromethoxy) phenylhydrazone (FCCP) (1 μM), and Rotenone/Antimycin A (0.5 μM). All data were normalized on the protein content of each well.
Figure 10 Results of Mito Stress Test assay. (A) C2C12 cells were subjected to Seahorse XFe96-Mito Stress Test analysis to evaluate oxygen consumption rate (OCR) in real time. OCR values were normalized on protein content. (B) Basal respiration, ATP-linked OCR, spare capacity, maximal respiration, and proton leak were calculated using data obtained from OCR plot after the administration of the adenosine triphosphate ATP synthase inhibitor oligomycin, the proton uncoupler carbonylcyanide p-trifluoromethoxyphenylhydrazone (FCCP), and the combination of the respiratory complex I inhibitor rotenone and the respiratory complex III inhibitor antimycin A. Each point reported in the OCR plot represents the medium value ± SEM obtained from independent replicates (n = 3 or 4). One-way ANOVA with Dunnett’s correction was used to assess differences in experimental features by using Prism 8 software (GraphPad). Statistical significance is annotated as follows: * p ≤ 0.01, ** p ≤ 0.001, *** p ≤ 0.0001, (t-test); ns, not significant; FC, fold change.

For assay [2], the target named is T1, Human PTP1B (Homo sapiens, UniProt P18031).
T1 sequence (P18031 1-302): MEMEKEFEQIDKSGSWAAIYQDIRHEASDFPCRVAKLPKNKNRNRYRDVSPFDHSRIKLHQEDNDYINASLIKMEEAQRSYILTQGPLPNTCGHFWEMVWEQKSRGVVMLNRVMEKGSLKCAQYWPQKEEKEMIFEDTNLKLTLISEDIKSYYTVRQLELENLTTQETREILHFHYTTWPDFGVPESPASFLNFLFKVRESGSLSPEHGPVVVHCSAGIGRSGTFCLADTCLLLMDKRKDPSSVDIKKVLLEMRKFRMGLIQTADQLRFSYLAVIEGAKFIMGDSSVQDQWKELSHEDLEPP
In words: PTP1B inhibition assay with pNPP as substrate (IC50). In kind it is biochemical. Further details: polyHis (N); made in house. Particulars: 2.5 mM pNPP, 37 °C; IC50 ± SD. The method, then: (§1) The purification of human recombinant AKR1B1 was performed as previously described. […] The purified enzyme, stored at −80 °C in 10 mM sodium phosphate buffer pH 7.0 containing 2 mM DTT and 30% (w/v) glycerol, was extensively dialyzed against 10 mM sodium phosphate buffer pH 7.0 before use. […] The fractions containing PTP1B were collected, concentrated, and injected into a Superdex G75 column equilibrated with Tris-HCl buffer pH 8.0 containing 150 mM NaCl and 1 mM mercaptoethanol. The fractions containing PTP1B were collected and concentrated; the purity of preparation was evaluated using SDS-PAGE. The PTP1B preparation was split into fractions of 0.5 mL volume; each fraction was stored at −80 °C.
(§2) The standard assay mixture (final volume 0.7 mL) was contained in 0.25 M sodium phosphate buffer pH 6.8, 0.18 mM NADPH, 0.4 M ammonium sulfate, 0.5 mM EDTA, and 4.7 mM GAL. One unit of enzyme activity is the amount of enzyme that catalyzes the conversion of 1 µmol of substrate/min in the above assay conditions. The same assay conditions were adopted in the inhibition studies using L-idose as the substrate at the indicated concentrations. PTP1B activity was determined using p-nitrophenylphosphate (pNPP) as the synthetic substrate. The pNPP was dissolved in 0.075 M ββ-dimethylglutarate buffer, pH 7.0, containing 1 mM dithiothreitol. Each assay was carried out at 37 °C in 1 mL of assay buffer. The reactions were started by diluting an aliquot of PTP1B preparation in the assay buffer; after 30 min, the reactions were stopped by adding 2 mL of 0.2 M KOH solution. The amount of p-nitrophenol released was determined spectrophotometrically, reading the absorbance of solutions at 400 nm (ε400nm = 18 mM^−^1cm^−^1).

The target in assay [3] is T2, human recombinant AKR1B1 (Homo sapiens, UniProt P15121).
T2 construct: made in house
In words: AKR1B1 inhibition assay with L-idose as substrate, NADPH oxidation (IC50). In kind it is biochemical. The conditions noted are these: 10 mU AKR1B1, 1.6 mM L-idose, 37 °C; IC50 ± SD. The method, then: as §1, §2

Assay [4] has as its target T1, Human PTP1B. Further details: polyHis (N); made in house. Particulars: cited from earlier work; for IC50: IC50 ± SD.
The target of assay [5] is T2, human recombinant AKR1B1. More on the design: method as in Demir et al. [17]. The conditions noted are these: ref Demir et al. [17]; cited from earlier work.
For assay [6], the system named is C2C12 cells. In words: Glucose uptake assay (2-NBDG, flow cytometry) in C2C12 cells. It counts as cell-based. The conditions noted are these: 2 h 10 mM cytochalasin B. As to the method:
To evaluate the impact of avarone (2) on the insulin signaling pathway, C2C12 cells were plated on P35 dishes and grown until 70% confluence. Then, cells were washed with phosphate-buffered saline (PBS) and incubated for 24 h in the presence of a starvation medium (DMEM high glucose containing 2 mM glutamine, 100 U/mL of penicillin, and 100 μg/mL of streptomycin). After this time, cells were stimulated for 30 min with 10 nM insulin (Humulin R, Ely Lilly, Italy) with avarone (2) or the insulin-avarone combination. After this time, cells were washed with cold PBS and lysed using 100 µL of 1X Laemmli sample buffer solution (50 mM Tris-HCl pH 6.8, 2% SDS, 10% glycerol, 1% β-mercaptoethanol, 12.5 mM EDTA, 0.02% bromophenol blue). Cell proteins were withdrawn, transferred in an Eppendorf tube and boiled for 5 min. All samples were stored at −20 °C before the analysis. Analysis of samples was carried out using SDS-PAGE; after electrophoresis, proteins were transferred on a PVDF membrane by Western blot. Phosphorylation levels of the insulin receptor β chain and of the kinase Akt were evaluated using specific antibodies: IR β subunit, clone CT-3 (MABS65) was from Santa Cruz Biotechnology (Santa Cruz, CA, USA); pIR β subunit, Y1162/1163 (sc-25103-R) was from Merck-Millipore (Burlington, MA, USA). Akt (9272S) and p-Akt (9271S) antibodies were from Cell Signaling Technology (Danvers, MA, USA). Finally, β-actin and clone C-4 (sc-47778) were from Merck-Millipore (Burlington, MA, USA). Anti-rabbit and anti-mouse secondary antibodies were from Santa Cruz Biotechnology (Santa Cruz, CA, USA). Detection was performed using Clarity western ECL substrates (BioRad Laboratories, Inc. 1000 Alfred Nobel DriveHercules, CA, USA). Quantitation of the images obtained was carried out using iBright Analysis Software (Thermo Fisher Scientific 168 Third Avenue Waltham, MA, USA, 02451). Glucose uptake was evaluated as previously described. […] Intrinsic and 2-NBDG-derived cell fluorescences were determined using a flow cytometer (FACSCanto II, BD Biosciences, San Jose, CA, USA). […] Quantitative analysis was carried out using FlowJo software (FlowJo^TM v10. BD FlowJo™ Software for Windows Version 10. Ashland, OR: Becton, Dickinson and Company; 2021).
Figure 8 Glucose uptake assay. […] After, cells were washed with PBS, detached using trypsin, collected by centrifugation, and analyzed using a flow cytometer (FACSCanto II, BD Biosciences). […] For each experiment, 10,000 events were analyzed. […] (B) Quantitation of fluorescence levels. […]
Figure 9 Impact of cytochalasin B on avarone-induced glucose uptake. […] After, cells were washed and incubated for 3 h with 40 µM 2-NBDG and then analyzed using a flow cytometer (FACSCanto II, BD Biosciences). For each experiment, 10,000 events were analyzed. […]
On the technique in general: In flow cytometry, cells or beads pass a laser one at a time.

The test system of the next assay is 3T3-L1 cells. Further details: method as in PMID 19262557, PMID 19091557. The conditions noted are these: ref [24],[27]; cited from earlier work.

Turning to `N#C/C(=C\c1cn(-c2ccccc2)c2ccccc12)C(=O)O` [UK5099, reference compound], the “mitochondrial respiration (OCR)” value in the assay with C2C12 cells [1] was “significant reduction in mitochondrial respiration”.

What is called IC50 is the midpoint of a concentration-inhibition curve. As to `CC1=CCC[C@H]2[C@](C)(Cc3cc(O)ccc3O)[C@@H](C)CC[C@]12C` [avarol (1), avarol], the IC50 worked out at 42.2 ± 18 µM against Human PTP1B [2] and 0.52 ± 0.19 µM on human recombinant AKR1B1 [3].

Turning to `O=C1C=CC(=O)C=C1` [p-benzoquinone], the IC50 was 38.9 ± 5.2 µM at Human PTP1B [4] (ref Zhang et al. [24]) and 1.93 µM at human recombinant AKR1B1 [5].

Take `C=C1[C@@H](C)[C@H]2[C@H](Cc3ccccc3)NC(=O)[C@]23OC(=O)/C=C/[C@H](O)CCC[C@@H](C)C/C=C/[C@H]3[C@@H]1O` [Cytochalasin B, cytochalasin B, reference compound]: in the assay with C2C12 cells [6] (then 10 nM insulin 30 min), the “effect of preincubation on insulin-stimulated glucose uptake” value was “strongly affects insulin-stimulated glucose uptake”. Also, in the assay on C2C12 cells [6] (then 25 µM avarone 30 min), the “effect of preincubation on avarone-mediated glucose uptake” value is “abolishes the avarone-mediated glucose uptake”.

“21-dehydroxybolinaquinone [21-dehydroxybolinaquinone (6)]”: the IC50 at Human PTP1B [4] (ref Li et al. [27]) was 39.5 µM.

dysidine [dysidine (5)]: at Human PTP1B [4] (ref Li et al. [27]), the IC50 was 6.7 ± 0.1 µM. Besides, on Human PTP1B [4] (ref [24],[27]), the “selectivity over other PTPs (TC-PTP and CD45)” value was “moderate selectivity”; the “type of PTP1B inhibition” value is recorded as “reversible slow-binding PTP1B inhibitor”. For the same molecule, the “glucose uptake in 3T3-L1 cells” value in the assay with 3T3-L1 cells is listed as “increase glucose uptake”.

`CNC1=CC(=O)C=C(C[C@]2(C)[C@@H](C)CC[C@]3(C)C(C)=CCC[C@@H]23)C1=O` [3-methylaminoavarone (3), 3-(methylamino)avarone]: the figures for the IC50 on Human PTP1B [2] and at human recombinant AKR1B1 [3] were 15.2 ± 2.1 µM and 73 ± 15 µM, respectively.

On to `CNC1=CC(=O)C(C[C@]2(C)[C@@H](C)CC[C@]3(C)C(C)=CCC[C@@H]23)=CC1=O` [4-methylaminoavarone (4), 4-(methylamino)avarone], for which the values for the IC50 against Human PTP1B [2] and on human recombinant AKR1B1 [3] were 21.6 ± 1 µM and 62 ± 8 µM, respectively.

The values above are taken from article PMC9964544, “Evidence of Insulin-Sensitizing and Mimetic Activity of the Sesquiterpene Quinone Avarone, a Protein Tyrosine Phosphatase 1B and Aldose Reductase Dual Targeting Agent from the Marine Sponge Dysidea avara” (Pharmaceutics, 2023).
